Reference: ChEMBL document CHEMBL5550093, “Design, synthesis and antitumor activity of 2-substituted quinazoline-4-amine derivatives” (Bioorg Med Chem, 2024)
pIC50: −log10 of the molar value. The source made the active and inactive calls. The calls are words filed in the database; no cut-off is given here.

How the values were obtained:
[1] = Antiproliferative activity against HEK293T cells at 5 uM incubated for 48 hrs by MTT assay relative to control; format: toxicity, cell-based, HEK-293T; conditions: human
K562 [2] = assay: Antiproliferative activity against human K562 cells at 5 uM incubated for 48 hrs by MTT assay relative to control; format: functional
PC-3 [3] = assay: Antiproliferative activity against human PC-3 cells at 5 uM incubated for 48 hrs by MTT assay relative to control; format: functional
A549 [4] = assay: Antiproliferative activity against human A549 cells at 5 uM incubated for 48 hrs by MTT assay relative to control; format: functional
HeLa [5] = assay: Antiproliferative activity against human HeLa cells at 5 uM incubated for 48 hrs by MTT assay relative to control; format: functional
PC-3 [6] = assay: Antiproliferative activity against human PC-3 cells incubated for 48 hrs by MTT assay; format: functional, cell-based; conditions: for pIC50: PC-3, 48 h; for IC20: PC-3, time 48 hrs
[7] = Antiproliferative activity against HEK293T cells incubated for 48 hrs by MTT assay; format: toxicity, cell-based, HEK-293T; conditions: human
K562 [8] = assay: Antiproliferative activity against human K562 cells incubated for 48 hrs by MTT assay; format: functional, cell-based; conditions: K562, 48 h
A549 [9] = assay: Antiproliferative activity against human A549 cells incubated for 48 hrs by MTT assay; format: functional, cell-based; conditions: A549, 48 h
HeLa [10] = assay: Antiproliferative activity against human HeLa cells incubated for 48 hrs by MTT assay; format: functional, cell-based
PC-3 [11] = assay: Antiproliferative activity against human PC-3 overexpressing WRN cells incubated for 48 hrs by MTT assay; format: functional
PC-3 [12] = assay: Inhibition of cell survival in human PC-3 cells at 1000 nM pretreated for 48 hrs followed by fresh media replacement without compound measured after 2 weeks by colony formation assay; format: functional, cell-based

Row | SMILES | inhibition at 48 h, 5 µM [1] | inhibition at 5 µM (K562 [2]) | inhibition at 5 µM (PC-3 [3]) | inhibition at 5 µM (A549 [4]) | inhibition at 5 µM (HeLa [5]) | pIC50 (PC-3 [6]) | IC50 at 48 h [7] | pIC50 (K562 [8]) | pIC50 (A549 [9]) | pIC50 (HeLa [10]) | IC20 (PC-3 [6]) | IC20 (PC-3 [11]) | inhibition (PC-3 [12])
1 | COc1cc(N2CCNCC2)ccc1N(C)c1nc(C(=O)c2ccc(F)cc2)nc2ccccc12 | 3.2% | 3.3% | 17.3% | 11.9% | 5.2% | – | – | – | – | – | – | – | –
2 | CC(C)(CN1C(=O)C(Cl)=C(Cl)C1=O)CN1C(=O)C(Cl)=C(Cl)C1=O | 71% | 35% | 51.1% | 7.3% | 69.1% | 5.17 | 3.1 µM | 5.74 | 5.47 | 5.57 | – | – | –
3 | COc1ccc(N(C)c2nc(C(F)(F)c3cccc(OC)c3)nc3ccccc23)cc1 | 56.6% | 61.3% | 57.6% | 52.7% | 47.8% | 5.25 | 2.1 µM | 6.52 | < 5.00 | < 5.00 | 0.25 µM | 0.144 µM | –
4 | COc1ccc(N(C)c2nc(C(=O)c3cccc(OC)c3)nc3ccccc23)cc1 | 59.6% | 61.5% | 58.1% | 52% | 51% | 5.18 | 6.4 µM | 5.03 | < 5.00 | < 5.00 | 0.975 µM | 1.07 µM | –
5 | COc1cccc(C(=O)c2nc(N(C)c3ccc(OC)c(OC)c3)c3ccccc3n2)c1 | 46.3% | 38.8% | 25.3% | 45.4% | 47.1% | – | – | – | – | – | – | – | –
6 | COc1cccc(C(F)(F)c2nc(N(C)c3ccc(OC)c(OC)c3)c3ccccc3n2)c1 | 63.6% | 65.5% | 62.7% | 53.2% | 51.2% | < 5.00 | 1.1 µM | 7.30 | < 5.00 | < 5.00 | 0.981 µM | 0.123 µM | Active
7 | C=CC(=O)Nc1cccc(Nc2nc(C(=O)c3ccccc3)nc3ccc(F)cc23)c1 | 4.8% | 8.9% | 9.6% | 7.9% | 7% | – | – | – | – | – | – | – | –
8 | COc1cc(N2CCNCC2)ccc1Nc1nc(C(=O)c2ccc(F)cc2)nc2ccccc12 | 5.8% | -6.6% | 9% | -0.5% | 1.7% | – | – | – | – | – | – | – | –
9 | COC(=O)c1ccc(N(C)c2nc(C(=O)c3ccccc3)nc3ccc(F)cc23)cc1 | 37.6% | 25.9% | 39% | 46.1% | 16% | – | – | – | – | – | – | – | –
10 | COc1ccc(Nc2nc([C@@H](N)C(C)C)nc3ccccc23)cc1 | 8.4% | 0.8% | -4.8% | 3.4% | 9.3% | – | – | – | – | – | – | – | –
11 | Cc1ccc(Nc2nc(C(=O)c3ccc(F)cc3)nc3ccccc23)c(C(=O)O)c1 | 20.6% | 6.5% | -4.2% | 29.9% | 42.7% | – | – | – | – | – | – | – | –
12 | CN(c1ccc(OC(F)(F)F)cc1)c1nc(C(=O)c2ccccc2)nc2ccc(F)cc12 | 1.3% | -2.2% | 10.4% | 18.4% | -3.1% | – | – | – | – | – | – | – | –
13 | COc1ccc(N(C)c2nc(C(=O)c3ccccc3)nc3ccc(F)cc23)cc1 | 39.3% | 24.1% | 40.9% | 25% | 37.8% | – | – | – | – | – | – | – | –
14 | COc1ccc(N(C)c2nc([C@@H](N)C(C)C)nc3ccccc23)cc1 | 59.2% | 85.2% | 51.9% | 72.6% | 33.6% | 5.10 | 7.9 µM | 5.10 | < 5.00 | < 5.00 | 7.61 µM | 1.11 µM | Active
15 | CN(c1ccc(N2CCOCC2)cc1)c1nc(C(=O)c2ccccc2)nc2ccc(F)cc12 | 34.5% | 35.4% | 35.4% | 3.3% | 40.3% | – | – | – | – | – | – | – | –
16 | CCOC(=O)c1c(C)nc(-c2ccc(N(C)c3nc(C(=O)c4ccccc4)nc4ccc(F)cc34)cc2)n1C | 0.3% | 30.1% | 1% | 1.8% | 4% | – | – | – | – | – | – | – | –
17 | COc1ccc(Nc2nc(C(=O)c3cccc(OC)c3)nc3ccccc23)cc1 | 4.7% | 25.2% | 46.5% | 44.3% | 40.1% | – | – | – | – | – | – | – | –
